Measured values taken from patent publication US20240271138A1, “METHODS AND COMPOSITIONS FOR MODULATING STING SIGNALING AND INNATE IMMUNE RESPONSES” (The Broad Institute, Inc., priority 2021, published 2024).

Tests used:
[1] = system: 293T stably expressing STING-HA; test: Immunofluorescence of HGS, p62, CD63, LC3B and STING in 293T STING-HA after cGAMP; type: cell-based, human; conditions: 293T STING-HA; cGAMP 2 hours; MLN7243; FIGS. 5E-5F
Procedure: 293T STING-TurboID were seeded directly on coverslips. 293T STING-HA were seeded on Fibronectin bovine plasma (Sigma-stock: 100×) coated coverslips. Cells were seeded the day before stimulation at 0.1 million cells/well density in 24 well plates. Cells were stimulated with cGAMP permeabilization buffer containing 1 μg/mL cGAMP for 10 minutes, washed with warm medium, and incubated for the indicated times. hTert-BJ1 mScarlet or mScarlet-UBAP1DN were seeded Fibronectin bovine plasma coated coverslips at 0.05 million cells/well density in a 24 well plate and fixed 6 hours post seeding. Cells were then fixed with 2% Paraformaldehyde (Electron Microscopy Sciences) in PHEM buffer (Electron Microscopy Sciences) for 30 minutes at 37° C., washed three times with PBS and quenched with freshly prepared 0.1M Glycine for 10 minutes. Coverslips were then permeabilized and blocked with 10% goat serum (Thermo Fisher) in PBS, 0.5% BSA (Seracare), 0.05% Saponin from Quillaja bark (Sigma) for 30 minutes. Coverslips were then stained with primary antibodies for 1-2 hours at room temperature in PBS, 0.5% BSA (Seracare), 0.05% Saponin from Quillaja bark (Sigma) with 10% goat serum, washed 5 times, and then stained with secondary antibodies in PBS, 0.5% BSA (Seracare), 0.05% Saponin from Quillaja bark (Sigma) for 1-2 hours. […] Images were analyzed in FiJi. […]

STING ubiquitination = test: FLAG-ubiquitin immunoprecipitation of STING in 293T STING-HA / FLAG-ubiquitin cells; type: cell-based, human; conditions: 2′3′-cGAMP, 2 hours; 0.5 μM MLN7243; FIG. 12A
Procedure: 293T cells were transduced with pTRIP-hPGK-Blast-2A-STING-HA and pTRIP-hPGK-Hygro-2A-FLAG-Ubiquitin and selected with […] Blasticidin (Invivogen) and 320 μg/mL Hygromycin (Invivogen) for one week. 1 million cells/well were plated in a 6 well plate the day prior to the stimulation. Cells were then stimulated with 300 μL cGAMP permeabilization buffer containing 1 μg/mL cGAMP for 10 minutes, washed with 3 mL of warm medium, and the medium was replaced. 3 wells per condition were harvested 2 hours post stimulation, washed with PBS and lysed with 550 μL of RIPA buffer for 10 minutes on ice. Lysates were cleared at 16000 g for 10 minutes at 4° C. 10% of the lysate was saved as input. The remaining lysates were incubated with 150 μL Pierce Anti-[…] Magnetic beads (Thermo Fisher) O/N at 4° C. with constant rotation. Beads were washed 3 times with a buffer containing 10 mM Tris-HCl pH7.5 (Thermo Fisher), 2 mM EDTA (Thermo Fisher), 1% Nonidet-P40 Substitute (Roche) and 50 mM NaCl (Thermo Fisher), and 2 times with RIPA buffer. Proteins were eluted by adding 150 μL of non-reducing Laemmli (Boston bioproducts) containing 20 mM DTT (Thermo Fisher) and boiled for 20 minutes. Input was diluted with 2× sample buffer (Sigma).
MLN7243 was added again after medium replacement. Cells were stimulated for the indicated times.

For NS(=O)(=O)OC[C@H]1C[C@@H](Nc2ccnc3cc(-c4cccc(SC(F)(F)F)c4)nn23)[C@H](O)[C@@H]1O [MLN7243], the “HGS co-localization with p62” value [1] was “failed to co-localize with p62”, the “HGS foci co-localizing with STING” value [1] was “completely lost” and the STING ubiquitination (STING ubiquitination) was “blocked STING ubiquitination”.
